Data: PubChem BioAssay (NCI)
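Five compound concentrations were applied to cells in 96-well plates for 48 hours; endpoints were derived by simple linear interpolation of the resulting dose-response curve. TGI denotes the concentration required for complete inhibition of growth.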

Legend:
Assay in all cases: NCI tumour cell line growth inhibition, 48 h
SW-620 colon = test system: SW-620 colon
BT-549 breast = test system: BT-549 breast
A549 NSCLC = test system: A549 NSCLC
UACC-257 melanoma = test system: UACC-257 melanoma
COLO 205 colon = test system: COLO 205 colon
HL-60(TB) leukemia = test system: HL-60(TB) leukemia
CCRF-CEM leukemia = test system: CCRF-CEM leukemia
KM12 colon = test system: KM12 colon
NCI/ADR-RES ovarian = test system: NCI/ADR-RES ovarian
A498 renal = test system: A498 renal

| SMILES | TGI (SW-620 colon) | TGI (BT-549 breast) | TGI (A549 NSCLC) | TGI (UACC-257 melanoma) | TGI (COLO 205 colon) | TGI (HL-60(TB) leukemia) | TGI (CCRF-CEM leukemia) | TGI (KM12 colon) | TGI (NCI/ADR-RES ovarian) | TGI (A498 renal) |
| --- | --- | --- | --- | --- | --- | --- | --- | --- | --- | --- |
| COc1ccc(NS(=O)CCCc2ccccc2)cc1 (stereo not given) | > 100 µM | > 100 µM | > 100 µM | > 100 µM | > 100 µM | > 100 µM | > 100 µM | > 100 µM | > 100 µM | – |
| O=c1oc2ccccc2cc1/C=N/N1C(=S)N(c2ccccc2)C(=Nc2ccccc2)C1=Nc1ccccc1 | > 100 µM | > 100 µM | > 100 µM | > 100 µM | > 100 µM | – | – | > 100 µM | > 100 µM | – |
| CC(=O)OC1C(O)COC(O[C@H]2CC[C@]34C[C@]35CC[C@]3(C)C([C@@]6(C)CC[C@@H](C(C)(C)O)O6)[C@@H](O)C[C@@]3(C)C5C[C@H](OC3OCC(O)C(O)C3O)[C@H]4C2(C)C)C1OC1OCC(O)C(O)C1O (stereo not given in full) | > 100 µM | > 100 µM | > 100 µM | > 100 µM | > 100 µM | > 100 µM | – | > 100 µM | > 100 µM | > 100 µM |
| CC1=NN(c2ccccc2)C(=O)/C1=C/c1ccc(O)cc1 | > 100 µM | – | > 100 µM | > 100 µM | > 100 µM | > 100 µM | > 100 µM | > 100 µM | > 100 µM | > 100 µM |
| CCOC(=O)/C(C(=S)Nc1ccccc1)=C(/N)N1CCCC1 | > 100 µM | – | > 100 µM | > 100 µM | > 100 µM | > 100 µM | > 100 µM | > 100 µM | > 100 µM | > 100 µM |
| CCOC(=O)c1sc2c(c1OC(=O)c1cccs1)c(=O)n(-c1ccccc1)c(=S)n2-c1ccccc1 | 65.5 µM | – | 38.8 µM | > 100 µM | 35.6 µM | 48.4 µM | 36 µM | 42.3 µM | 31.4 µM | 18.9 µM |
| CCCCCCNC(=O)c1cnc(Cl)cn1 | 28.4 µM | 82.4 µM | 42.3 µM | 37.4 µM | 40 µM | 47.8 µM | > 100 µM | 29.3 µM | 34.2 µM | – |
| CC(C)[C@@H]1NC(=O)[C@H]2N=C(O[C@@H]2C)[C@@H]2CCCN2C(=O)[C@H](Cc2ccccc2)NC(=O)[C@@H]2CSC(=N2)[C@@H](Cc2ccccc2)NC(=O)[C@@H]2CSC1=N2 | > 50 µM | > 50 µM | > 50 µM | > 50 µM | > 50 µM | 41.3 µM | > 50 µM | > 50 µM | > 50 µM | – |
| CC1(CCC2C=CCC2)CCCNC1=S (stereo not given) | > 10 µM | > 10 µM | > 10 µM | > 10 µM | – | > 10 µM | > 10 µM | > 10 µM | – | > 10 µM |
| Cc1ccc(-c2nc3ccc(Cl)cc3[nH]2)cc1 | > 100 µM | > 100 µM | > 100 µM | > 100 µM | > 100 µM | > 100 µM | > 100 µM | > 100 µM | > 100 µM | – |
| C=C1CC2OC2(C(=O)O[C@H]2CCC3[C@@H]4CCC5=CC(=O)CC[C@]5(C)C4CC[C@@]32C)C1=O (stereo not given in full) | 11.8 µM | 41.9 µM | 43 µM | 18.3 µM | 15.5 µM | 3.93 µM | 12.7 µM | 32 µM | – | 30.6 µM |
| O=C(Cn1c2c(c3ccccc31)CCCC2)NC1CCCCC1 | > 100 µM | > 100 µM | > 100 µM | > 100 µM | > 100 µM | > 100 µM | > 100 µM | – | > 100 µM | > 100 µM |
